Species: Oryctolagus cuniculus
Test: Inhibitory concentration against peroxidation of rabbits red blood cell (RBC) membrane ghost induced by gamma-ray irradiation
Format: functional
Details: light or radiation study

| Compound | IC50 [µM] |
| --- | --- |
| CC(=O)/C=C/c1cc(C)ccc1O | 8 |
| CC(=O)/C=C/c1cc(C(C)(C)C)ccc1O | 8 |
| CC(=O)/C=C/c1ccc(O)c(O)c1 | 2.34 |
| COc1cccc(/C=C/C(C)=O)c1O | 3.25 |
| CC(=O)/C=C/c1cc(Cl)ccc1O | 60.3 |
| CC(=O)/C=C/c1cccc(O)c1O | 1.96 |
| CC(=O)/C=C/c1cccc(F)c1O | 51.2 |
| CCOc1cccc(/C=C/C(C)=O)c1O | 3.31 |
| CC(=O)/C=C/c1ccccc1O | 37.8 |
| COc1cc(/C=C/C(C)=O)cc(OC)c1O | 2.52 |
| CC(=O)/C=C/c1cc(O)ccc1O | 1.43 |
| COc1cc(/C=C/C(C)=O)ccc1O [DEHYDROZINGERONE] | 11.5 |
| COc1ccc(/C=C/C(C)=O)c(O)c1 | 35.5 |
| COc1ccc(O)c(/C=C/C(C)=O)c1 | 3.98 |
| CC(=O)/C=C/c1ccc(O)cc1 | 66.1 |
| CC(=O)/C=C/c1cccc(C)c1O | 3.63 |
| CC(=O)/C=C/c1cccc(C(C)(C)C)c1O | 2.19 |
| CC(=O)/C=C/c1cc(C)c(O)c(C)c1 | 6.32 |

From ChEMBL document CHEMBL1139592, “Quantitative structure-activity relationship studies for antioxidant hydroxybenzalacetones by quantum chemical- and 3-D-QSAR(CoMFA) analyses” (Bioorg Med Chem Lett, 2005)
